Test results from patent US20240252677A1, “ONE-COMPONENT DELIVERY SYSTEM FOR NUCLEIC ACIDS” (The Trustees of the University of Pennsylvania, priority 2021, published 2024).
Marks after values point to notes of the source that are not given here. Blank lines part the entries; values can stand above or below the compound they belong to.

What was measured:
[1] = Stability of DNPs by DLS after storage at 5° C.; format: physicochemical; parameters: key to Original size distribution type (DLS curve) / Size distribution type (DLS curve): U: DLS curve showed unimodal size distribution; B: DLS curve showed bimodal size distribution; M: DLS curve showed multimodal size distribution; conditions: for pH Sample: DNPs: IAJD 4.0 mg/mL + Luc-mRNA 0.1 mg/mL, injection in acetate buffer pH 4.00; for PDI / Size (d, nm) / Original size distribution type (DLS curve): IAJD 4.0 mg/mL + Luc-mRNA 0.1 mg/mL; for PDI / Size (d, nm): acetate buffer; for Original size distribution type (DLS curve): before storage, acetate buffer pH 4.00
Experimental: (§1) The stability of the DNPs as assayed by DLS. All the samples are prepared in acetate buffer. The stabilities of the constructs were ranked: Excellent (in bold)—the original sizes and distribution remains almost the same after storage; Good—the original relatively big sizes became smaller or broad size distribution became narrower; Not stable—the original relatively big sizes or broad size distribution remained almost the similar level, or the original relatively small sizes became bigger or narrow size distribution became broader.

[2] = Stability of DNPs by DLS after storage at 5° C.; format: physicochemical; parameters: key: Excellent: the original sizes and distribution types remained almost the same after storage; Good: the original sizes and distribution types changed slightly (size difference was less than 100 nm) or the original size remained almost the same but the DLS curve showed more size distributions after storage
Experimental: as §1

HEK293T cells = experiment: In vitro Luc-mRNA transfection, luciferase luminescence expression in HEK293T cells; format: cell-based, human; parameters: unit not given here; conditions: Table 16; HEK 293T cells, 125 ng/well, n=3
How it was run: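 HEK293T cells were transfected with nucleoside-modified firefly luciferase mRNA at 125 ng/well delivered in the test particles. TransIT and MC3-based LNPs at equal mRNA dose served as comparators. After 24 h (18-20 h in some runs) at 37° C the cells were lysed, and luciferase luminescence was read on a luminometer, in triplicate.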

BALB/c mice = experiment: In vivo mRNA delivery in mice with DNPs, whole-body bioluminescence imaging (IVIS); conditions: Table 19; nonsymmetric IAJDs
Experimental: The exposure time was 1 min.
Luminescence characterization for in vivo transfection experiments employed bioluminescence imaging with an IVIS Spectrum imaging system (PerkinElmer, Waltham, MA). Mice were anesthetized with 3% of isoflurane (Piramal Healthcare Limited) and intraperitoneally (i.p.) administered with D-luciferin (Regis Technologies) at a dose of 150 mg/kg of body weight. Ten minutes post administration of D-luciferin, mice were placed on the imaging platform while being maintained on isoflurane via a nose cone and imaged using an exposure time of 60 seconds. […] To quantify luminescent flux, an oval ROI was placed over each organ of interest and analyzed.
Tissue luminescence signal was measured on the IVIS imaging system using an exposure time of 60 seconds using medium binning (binning=8) to ensure that the signal obtained was within operative detection range. […] Bioluminescence imaging was performed as described above.
Luminescence Characterization for In Vivo Transfection Experiments: bioluminescence imaging was performed with an IVIS Spectrum imaging system (PerkinElmer, Waltham, MA).

Compound: CCCCCCCCCCCOc1cc(COC(=O)c2cc(OCCOCCOCCCC(=O)CCCN3CCCCC3)c(OCCOCCOCCOCc3ccccc3)c(OCCOCCOCCOC(=O)CCCN3CCCCC3)c2)cc(OCCCCCCCCCCC)c1 [IAJD 111]
pH Sample [1]: 4.84 | Size distribution type (DLS curve) ([1]; after 75 days at 5° C.): (U) | PDI ([1]; after 75 days at 5° C.): 0.227 | Size (d, nm) ([1]; after 75 days at 5° C.): 96 nm | Original size distribution type (DLS curve) [1]: (U) | Ranking of stability ([2]; after 75 days at 5° C.): Excellent | Luminescence (HEK293T cells): 41

Compound: CCCCCCCCCCCOc1cc(COC(=O)CCCN2CCN(CCO)CC2)cc(OCCCCCCCC)c1 [IAJD 113, 3-(Octyloxy)-5-(undecyloxy)benzyl 4-(4-(2-hydroxyethyl)piperazin-1-yl)butanoate]
In vivo activity (total flux, p/s) (BALB/c mice): 1.70 × 10^7 p/s | pH Sample [1]: 4.48 | Size distribution type (DLS curve) ([1]; after 70 days at 5° C.): (B) | PDI ([1]; after 70 days at 5° C.): 0.365 | Size (d, nm) ([1]; after 70 days at 5° C.): 184 nm | Original size distribution type (DLS curve) [1]: (B)^b | Ranking of stability ([2]; after 70 days at 5° C.): Excellent | Luminescence (HEK293T cells): 78,118

Compound: CCCCCCCCCCCCCCCCOc1cc(COC(=O)CCCN2CCN(CCO)CC2)cc(OCCCCCCCCCCC)c1 [IAJD 120, 3-(Hexadecyloxy)-5-(undecyloxy)benzyl 4-(4-(2-hydroxyethyl)piperazin-1-yl)butanoate]
In vivo activity (total flux, p/s) (BALB/c mice): 2.48 × 10^7 p/s | pH Sample [1]: 4.40 | Size distribution type (DLS curve) ([1]; after 70 days at 5° C.): (B) | PDI ([1]; after 70 days at 5° C.): 0.289 | Size (d, nm) ([1]; after 70 days at 5° C.): 177 nm | Original size distribution type (DLS curve) [1]: (B) | Ranking of stability ([2]; after 70 days at 5° C.): Excellent | Luminescence (HEK293T cells): 443,836

Continued, in another order:

pH Sample [1]: 4.49 | Size distribution type (DLS curve) ([1]; after 62 days at 5° C.): (B) | PDI ([1]; after 62 days at 5° C.): 0.346 | Size (d, nm) ([1]; after 62 days at 5° C.): 192 nm | Original size distribution type (DLS curve) [1]: (B) | Ranking of stability ([2]; after 62 days at 5° C.): Excellent
Compound: CCCCCCCCCCCOc1cc(COC(=O)CCCN2CCN(CCO)CC2)cc(OCCCCCCCCC)c1 [IAJD 122, 3-(Nonyloxy)-5-(undecyloxy)benzyl 4-(4-(2-hydroxyethyl)piperazin-1-yl)butanoate]
In vivo activity (total flux, p/s) (BALB/c mice): 2.50 × 10^7 p/s | Luminescence (HEK293T cells): 55,101

pH Sample [1]: 4.51 | Size distribution type (DLS curve) ([1]; after 62 days at 5° C.): (B) | PDI ([1]; after 62 days at 5° C.): 0.240 | Size (d, nm) ([1]; after 62 days at 5° C.): 284 nm | Original size distribution type (DLS curve) [1]: (U) | Ranking of stability ([2]; after 62 days at 5° C.): Good
Compound: CCCCCCCCCCCCOc1cc(COC(=O)CCCN2CCN(CCO)CC2)cc(OCCCCCCCCCCC)c1 [IAJD 124, 3-(Dodecyloxy)-5-(undecyloxy)benzyl 4-(4-(2-hydroxyethyl)piperazin-1-yl)butanoate]
In vivo activity (total flux, p/s) (BALB/c mice): 3.77 × 10^7 p/s | Luminescence (HEK293T cells): 145,115

pH Sample [1]: 4.83 | Size distribution type (DLS curve) ([1]; after 19 days at 5° C.): (U) | PDI ([1]; after 19 days at 5° C.): 0.258 | Size (d, nm) ([1]; after 19 days at 5° C.): 77 nm | Original size distribution type (DLS curve) [1]: (U) | Ranking of stability ([2]; after 19 days at 5° C.): Excellent
Compound: CCCCCCCCCCCCCCCCCOc1cc(COC(=O)c2cc(OCCOCCOCCCC(=O)CCCN3CCCCC3)c(OCCOCCOCCOCc3ccccc3)c(OCCOCCOCCOC(=O)CCCN3CCCCC3)c2)cc(OCCCCCCCCCCC)c1 [IAJD 158]
Luminescence (HEK293T cells): 83

pH Sample [1]: 4.52 | Size distribution type (DLS curve) ([1]; after 35 days at 5° C.): (B) | PDI ([1]; after 35 days at 5° C.): 0.261 | Size (d, nm) ([1]; after 35 days at 5° C.): 112 nm | Original size distribution type (DLS curve) [1]: (U) | Ranking of stability ([2]; after 35 days at 5° C.): Good
Compound: CCCCCCCCCCCCCCCOc1cc(COC(=O)CCCN2CCN(CCO)CC2)cc(OCCCCCCCC)c1 [IAJD 138, 3-(Octyloxy)-5-(pentadecyloxy)benzyl 4-(4-(2-hydroxyethyl)piperazin-1-yl)butanoate]
In vivo activity (total flux, p/s) (BALB/c mice): 1.49 × 10^7 p/s | Luminescence (HEK293T cells): 102,620
